From US20060251597A1, “ANTI-ODOR COMPOSITIONS AND THERAPEUTIC USE” (priority 2005, published 2006) come the findings set out here.

Where a name gives a salt, the structure may show the parent alone. *1 amine or outer side, *2 acyl side, *3 side chain or, on linkers, in order; H or OH if unused. Where a SMILES comes first, the peptide text is derived from it. [ ]: non-standard residue; d: D form. γGlu = O=C(O)[C@H](CCC(=O)[*:2])N[*:1]

A short description of test [1]: panel sniff tests of solvents, ingredients and amines against thiol malodor (general statements). The settings on record: solvent or ingredient, based on the panel tests. How it is done:
Initially, a malodor compound such as about 5% by weight was prepared in water solution or in oil-in-water emulsion. A sulfone or organic amine of the present embodiments was added at various concentrations for example, ranging from about 2%, 1%, 0.5% and 0.1% to the formulations containing the malodor substance. The composition containing the malodor substance without a sulfone or organic amine was used as the control.

Test [2] in a line: anti-odor test, panel by sniffing: N-acetyl-L-cysteine dissolved in a single solvent or liquid ingredient (anhydrous composition). The following applies: for anti-odor effect: 10% N-acetyl-L-cysteine and 90% solvent or liquid ingredient; for suppression of the malodor, judged by panel: 10% N-acetyl-L-cysteine and 90% solvent. How it is done:
An anti-odor test was carried out in an anhydrous solvent according to the following example. In a series of test tubes, 4.5 ml of a solvent was added to a test tube such that each test tube comprised a single solvent. The solvents added to the test tubes included water, ethanol, acetone, n-propanol, isopropyl alcohol, propylene glycol, butylenes glycol, benzyl alcohol, ethoxydiglycol, 2-ethyl-1,3-hexanediol. N-Acetyl-L-cysteine (MW 163) 0.5 g was then added and dissolved in each solvent. The test tubes were warmed slightly to enhance dissolution of N-acetyl-L-cysteine crystals. Each test tube contained 10% N-acetyl-L-cysteine and 90% solvent.
An anti-odor test was carried out in an anhydrous composition according to the following example. In a series of test tubes, 4.5 ml of a liquid ingredient was added to a test tube such that each test tube comprised a single liquid ingredient. The liquid ingredients added to a test tube included ethyl glycolate, ethyl-L-lactate, diethyl tartrate, triethyl citrate, tripropyl citrate, ethyl-DL-mandelate, benzyl N-acetyl-prolinate, ethyl N-acetyl-prolinate, propyl N-acetyl-prolinate. N-Acetyl-L-cysteine (MW 163) 0.5 g was then added and dissolved in each liquid ingredient. The test tubes were warmed slightly to enhance dissolution of N-acetyl-L-cysteine crystals. Each test tube contained 10% N-acetyl-L-cysteine and 90% liquid ingredient. The panel judged the anti-odor effect in each test tube.

A short description of test [3]: anti-odor test, panel by sniffing: thiol or similar malodor compound in anhydrous composition. How it is done: In the same manner, the degree of reducing the presence or preventing the production of malodor generated by a thiol or similar malodor compounds in an anhydrous composition containing a solvent or ingredient of the present embodiments was judged by three-member panel through olfactory sensor by sniffing as (a) no difference from control, (b) slight malodor, (c) trace malodor, and (d) no malodor. In an initial test, a solvent or liquid ingredient of the present embodiments at 4.5 ml was added to a test tube, and a thiol or similar malodor compounds 0.5 g was added to make 10% thiol or similar malodor compounds in the solution. The control solution was prepared by dissolving a thiol or similar malodor compounds 0.5 g in water 4.5 ml to make 10% aqueous solution. The above test solutions including the control solutions were judged by the panel for the anti-odor effect and the degree of reducing the presence or preventing the production of malodor was recorded in the same way as (a) no effect (no difference from control), (b) slight malodor (50% effective), (c) trace malodor (90% effective), and (d) no malodor (completely effective).

The mark [4] stands for this setting: 10% malodor compound in anhydrous solution of isopropyl alcohol 50 parts, diethyl tartarate 25 parts, triethyl citrate 25 parts v/v.
[5] abbreviates: 2% malodor compound in anhydrous solution of isopropyl alcohol 50 parts, diethyl tartarate 25 parts, triethyl citrate 25 parts v/v.

As for `CCCC(O)C(CC)CO` (stereo not drawn) [2-ethyl-1,3-hexanediol], in test [1], the “prevention of malodor produced by a thiol or similar malodor compounds” value (from here on “prevention of malodor produced”) is listed as “effectively prevent malodor”. In test [2], the anti-odor effect came to 100%.

With `CCOC(=O)CNC(=O)[C@H](CS)NC(=O)CC[C@H](N)C(=O)OCC` [L-Glutathione diethyl ester], the “malodor as judged by panel” value in test [3] (setting [4]) is “did not have any malodor”.

In the case of `CCOC(=O)[C@H](CSC(C)=O)NC(C)=O` [N,S-Diacetyl-L-cysteine ethyl ester], the “malodor as judged by panel” value in test [3] (setting [4]) was “did not have any malodor”.

Take `COC(=O)[C@H](CSC(C)=O)NC(C)=O` [N,S-Diacetyl-L-cysteine methyl ester]: the “malodor as judged by panel” value in test [3] (setting [4]) was “did not have any malodor”.

Take `CCOC(=O)CNC(=O)[C@H](CS)NC(=O)CC[C@H](NC(C)=O)C(=O)OCC` [N-Acetyl-L-glutathione diethyl ester]: the “malodor as judged by panel” value is “did not have any malodor” in test [3] (setting [4]) and “did not have any malodor” in test [3] (10% malodor compound in diethyl tartarate, anhydrous).

Turning to `CC(=O)N[C@@H](CCC(=O)N[C@@H](CS)C(=O)NCC(=O)O)C(=O)O` [N-Acetyl-L-glutathione] (Ac-[γGlu]-Cys-Gly-OH), the “malodor as judged by panel” value in test [3] (setting [5]) is “did not have any malodor”.

Consider `CCC(=O)N[C@@H](CS)C(=O)O` [N-Propanoyl-L-cysteine], for which the “malodor as judged by panel” value in test [3] (setting [5]) was “did not have any malodor”.

Consider `CC(=O)N1CCC[C@H]1C(=O)OCc1ccccc1` [benzyl N-acetyl-prolinate], for which the “prevention of malodor produced” value in test [1] is given as “effectively prevent malodor”. Moreover, the anti-odor effect in test [2] is 100%.

In turn, `OCc1ccccc1` [benzyl alcohol] returned an anti-odor effect in test [2] of 100%.

Consider `OCCCCO` [butylene glycol], for which the “prevention of malodor produced” value in test [1] is listed as “effectively prevent malodor”. Besides, in test [2], the “suppression of the malodor, judged by panel” value (from here on “suppression of the malodor”) is given as “did not suppress the malodor”.

Turning to `CCOC(=O)C(O)C(O)C(=O)OCC` (stereo not drawn) [diethyl tartrate], in test [1], the “prevention of malodor produced” value is recorded as “effectively prevent malodor”. The same compound yielded an anti-odor effect in test [2] of 100%.

Turning to `CCO` [ethanol], the “suppression of the malodor” value in test [2] was “did not suppress the malodor”.

Take `CCOCCOCCO` [ethoxydiglycol]: the “prevention of malodor produced” value in test [1] is recorded as “effectively prevent malodor”. For the same compound, the anti-odor effect in test [2] came to 100%.

Regarding `CCOC(=O)[C@@H]1CCCN1C(C)=O` [ethyl N-acetyl-prolinate], the “prevention of malodor produced” value in test [1] is recorded as “effectively prevent malodor”. The anti-odor effect in test [2] was found to be 100%.

As for `CCOC(=O)CO` [ethyl glycolate], the “prevention of malodor produced” value in test [1] is given as “effectively prevent malodor”. In test [2], this compound returned an anti-odor effect of 100%.

Take `CCOC(=O)[C@H](C)O` [ethyl-L-lactate]: the anti-odor effect in test [2] was found to be 100%.

On to `CC(C)O` [isopropyl alcohol], for which the “prevention of malodor produced” value in test [1] is “effectively prevent malodor”. Further, in test [2], the anti-odor effect came to 100%.

Turning to `CCCO` [n-propanol], in test [1], the “prevention of malodor produced” value is recorded as “effectively prevent malodor”. The compound also displayed an anti-odor effect in test [2] of 100%.

As for `CCCOC(=O)[C@@H]1CCCN1C(C)=O` [propyl N-acetyl-prolinate], the “prevention of malodor produced” value in test [1] is recorded as “effectively prevent malodor”. For the same compound, the anti-odor effect in test [2] is 100%.

Take `CC(O)CO` (stereo not drawn) [propylene glycol]: the “suppression of the malodor” value in test [2] is listed as “did not suppress the malodor”.

`CCOC(=O)CC(O)(CC(=O)OCC)C(=O)OCC` [triethyl citrate]: in test [1], the “prevention of malodor produced” value is listed as “effectively prevent malodor”. Further, in test [2], the anti-odor effect was 100%.

`CCCOC(=O)CC(O)(CC(=O)OCCC)C(=O)OCCC` [tripropyl citrate]: in test [1], the “prevention of malodor produced” value is “effectively prevent malodor”. This compound came in with an anti-odor effect in test [2] of 100%.

Take `O` [water]: the “suppression of the malodor” value in test [2] is listed as “did not suppress the malodor”.
